Columns and labels:
5-HT3 receptors = target: T1, 5-HT3 receptors (Homo sapiens, UniProt P46098); details: cited from earlier work
T1 sequence (P46098 24-478): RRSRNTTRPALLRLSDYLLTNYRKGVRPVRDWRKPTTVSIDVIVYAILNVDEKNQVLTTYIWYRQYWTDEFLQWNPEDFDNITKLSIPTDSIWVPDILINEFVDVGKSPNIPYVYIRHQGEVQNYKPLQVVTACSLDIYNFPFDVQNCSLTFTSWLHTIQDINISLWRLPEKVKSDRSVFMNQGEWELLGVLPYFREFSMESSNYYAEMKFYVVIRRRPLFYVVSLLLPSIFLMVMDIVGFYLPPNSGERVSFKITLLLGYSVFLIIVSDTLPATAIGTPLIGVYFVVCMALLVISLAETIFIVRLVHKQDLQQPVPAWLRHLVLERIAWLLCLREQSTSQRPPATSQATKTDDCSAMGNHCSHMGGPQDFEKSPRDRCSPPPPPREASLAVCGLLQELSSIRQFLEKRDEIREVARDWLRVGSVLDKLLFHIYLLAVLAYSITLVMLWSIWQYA

patients having tinnitus = assay: 24-week placebo controlled, randomized, double-blind comparative trial, TRSw score; assay type: in vivo, human; design: key to Change in TRSw score: LS mean change in TRSw score from week 0 to week 24; <0 = better; details: for Change in TRSw score, Neramexane-placebo / Change in TRSw score: 24 weeks; for Change in TRSw score: 50 mg/day
From the text: A therapeutic effect can be evaluated by physician inquiry using a questionnaire form such as TRSw (Tinnitus Rating Scale One-Week Version) (Acta Otolaryngol., 2013, 133(5), 491-498).
The efficacy of neramexane mesylate on patients with tinnitus associated with age-related hearing loss, tinnitus associated with auditory disorder in the range of the human voice at an auditory threshold value exceeding 25 dB, tinnitus that includes two or more different tinnitus sounds or tinnitus that includes a tinnitus sound that is not high-frequency alone, was evaluated in a 24-week, placebo controlled, randomized, double-blind comparative trial.
The film coated tablets containing 12.5 mg neramexane mesylate or placebo tablets were administered for 24 weeks to patients having tinnitus. The dosage was started from 12.5 mg/day, gradually increasing the dose to 50 mg/day over 4 weeks, and maintaining the same dose thereafter.
The therapeutic effect of neramexane mesylate for the patients was evaluated using the TRSw score. Statistical analysis was performed using a mixed-effect model repeated measure (MMRM) taking into consideration the covariance structure of error for the patient, with the change in TRSw score from before administration of neramexane mesylate tablets or placebo tablets (0 weeks) to each evaluation time point as the response variable, and with the drug-administered group, evaluation time point, interaction between drug-administered group and evaluation time point, 0-week TRSw score, gender and body weight as […]. The numerical values in the table represent least mean squares for the change in TRSw score at 24 weeks after administration. A change in score of less than 0 indicates a higher therapeutic effect.

[1] = target: α9/α10 nicotinic acetylcholine receptors (Rattus norvegicus, UniProt P43144+Q9JLB5); details: Plazas, et al., Eur J Pharmacol., 2007; cited from earlier work
α9/α10 nicotinic acetylcholine receptors, sequence (P43144 26-479): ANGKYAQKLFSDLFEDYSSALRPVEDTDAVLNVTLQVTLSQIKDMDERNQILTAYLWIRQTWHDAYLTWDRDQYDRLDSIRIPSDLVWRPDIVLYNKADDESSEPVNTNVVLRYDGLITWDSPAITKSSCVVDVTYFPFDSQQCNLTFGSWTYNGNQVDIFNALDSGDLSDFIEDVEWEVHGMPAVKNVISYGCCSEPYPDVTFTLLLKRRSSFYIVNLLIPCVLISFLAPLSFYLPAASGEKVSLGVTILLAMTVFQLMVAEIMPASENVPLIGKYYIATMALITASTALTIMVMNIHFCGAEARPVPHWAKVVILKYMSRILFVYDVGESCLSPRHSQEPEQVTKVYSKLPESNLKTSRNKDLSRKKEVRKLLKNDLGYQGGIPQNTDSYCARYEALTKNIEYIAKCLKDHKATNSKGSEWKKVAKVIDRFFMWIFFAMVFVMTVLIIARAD
α9/α10 nicotinic acetylcholine receptors, sequence (Q9JLB5 25-447): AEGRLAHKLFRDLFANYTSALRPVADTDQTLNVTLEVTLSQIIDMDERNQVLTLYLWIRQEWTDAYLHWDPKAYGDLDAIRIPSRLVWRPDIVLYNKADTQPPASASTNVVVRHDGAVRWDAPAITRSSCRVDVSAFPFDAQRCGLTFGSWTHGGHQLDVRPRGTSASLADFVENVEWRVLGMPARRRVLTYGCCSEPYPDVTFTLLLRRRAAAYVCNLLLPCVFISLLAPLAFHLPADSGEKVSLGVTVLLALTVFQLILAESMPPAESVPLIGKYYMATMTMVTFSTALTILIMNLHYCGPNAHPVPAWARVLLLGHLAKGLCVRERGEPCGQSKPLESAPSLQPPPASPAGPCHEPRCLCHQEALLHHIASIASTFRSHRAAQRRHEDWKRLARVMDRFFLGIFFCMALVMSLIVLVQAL

[2] = Tinnitus associated with age-related hearing loss at hearing threshold of 25 dB or more in both ears in 4000 Hz and 8000 Hz
[3] = Tinnitus associated with age-related hearing loss at hearing threshold of 25 dB or more in both ears in 8000 Hz
[4] = Tinnitus associated with age-related hearing loss, exhibiting auditory disorder (>25 dB) in the range of the human voice
[5] = Tinnitus associated with auditory disorder (>25 dB) in the range of the human voice
[6] = Tinnitus including tinnitus sound not of high-frequency alone
[7] = Tinnitus including two or more different tinnitus sounds, associated with age-related hearing loss, exhibiting auditory disorder (>25 dB) in the range of the human voice
[8] = Tinnitus including two or more different tinnitus sounds, associated with age-related hearing loss
[9] = Tinnitus including two or more different tinnitus sounds

CC1(C)CC(C)(C)CC(C)(N)C1 [Neramexane, 1-amino-1,3,3,5,5-pentamethylcyclohexane]
inhibiting activity on 5-HT3 receptors (5-HT3 receptors): exhibits inhibiting activity | Change in TRSw score, Neramexane-placebo (patients having tinnitus; [2]): −2.0 | Change in TRSw score (patients having tinnitus; [2]): −2.5 | Change in TRSw score, Neramexane-placebo (patients having tinnitus; [3]): −1.5 | Change in TRSw score (patients having tinnitus; [3]): −2.2 | Change in TRSw score, Neramexane-placebo (patients having tinnitus; [4]): −2.0 | Change in TRSw score (patients having tinnitus; [4]): −3.6 | Change in TRSw score, Neramexane-placebo (patients having tinnitus; Tinnitus associated with age-related hearing loss): −0.5 | Change in TRSw score (patients having tinnitus; Tinnitus associated with age-related hearing loss, least mean squares): −2.5 | Change in TRSw score, Neramexane-placebo (patients having tinnitus; [5]): −0.6 | Change in TRSw score (patients having tinnitus; [5]): −1.7 | Change in TRSw score, Neramexane-placebo (patients having tinnitus; [6]): −0.7 | Change in TRSw score (patients having tinnitus; [6]): −2.0 | Change in TRSw score, Neramexane-placebo (patients having tinnitus; [7]): −4.7 | Change in TRSw score (patients having tinnitus; [7]): −5.0 | Change in TRSw score, Neramexane-placebo (patients having tinnitus; [8]): −2.7 | Change in TRSw score (patients having tinnitus; [8]): −4.1 | Change in TRSw score, Neramexane-placebo (patients having tinnitus; [9]): −0.5 | Change in TRSw score (patients having tinnitus; [9]): −2.2 | therapeutic effect compared to placebo (patients having tinnitus; combined groups: age-related hearing loss with auditory disorder >25 dB, two or more sounds with age-related hearing loss, all three criteria): unexpectedly excellent therapeutic effect | therapeutic effect compared to placebo (patients having tinnitus; single-criterion groups: age-related hearing loss, auditory disorder >25 dB in range of human voice, two or more tinnitus sounds, sound not high-frequency alone): superior therapeutic effect | inhibiting activity on α9/α10 nicotinic acetylcholine receptors [1]: exhibits inhibiting activity

From patent US20170049718A1, “DRUG FOR TREATMENT OF TINNITUS PATIENTS” (KYORIN PHARMACEUTICAL CO., LTD., priority 2014, published 2017)
